Reference: ChEMBL document CHEMBL5634160, “Synthesis, biological evaluation and action mechanism of 7H-[1,2,4] triazolo [3,4-b] [1,3,4] thiadiazine-phenylhydrazone derivatives as α-glucosidase inhibitors” (Eur J Med Chem, 2023)

Experiments:
Alpha-glucosidase = Alpha-glucosidase (Saccharomyces cerevisiae S288c, UniProt P53341+P38158+P07265); experiment: Inhibition of Saccharomyces cerevisiae alpha-glucosidase using nitrophenol-alpha-D-glucopyranoside (pNPG) as substrate incubated for 15 mins; type: protein assay
[1] = test system: COc1cc(/C=N/Nc2nnc3n2N=C(c2ccccc2)CS3)cc(OC)c1O; experiment: Mixed-type inhibition of Saccharomyces cerevisiae alpha-glucosidase using nitrophenol-alpha-D-glucopyranoside (pNPG) as substrate assessed as Vmax at 24 to 48 uM measured after 15 mins by Lineweaver-Burk plot analysis; type: protein assay; conditions: dose 24-48 µM

Alpha-glucosidase (Saccharomyces cerevisiae S288c), sequence (P07265 whole entry, looked up): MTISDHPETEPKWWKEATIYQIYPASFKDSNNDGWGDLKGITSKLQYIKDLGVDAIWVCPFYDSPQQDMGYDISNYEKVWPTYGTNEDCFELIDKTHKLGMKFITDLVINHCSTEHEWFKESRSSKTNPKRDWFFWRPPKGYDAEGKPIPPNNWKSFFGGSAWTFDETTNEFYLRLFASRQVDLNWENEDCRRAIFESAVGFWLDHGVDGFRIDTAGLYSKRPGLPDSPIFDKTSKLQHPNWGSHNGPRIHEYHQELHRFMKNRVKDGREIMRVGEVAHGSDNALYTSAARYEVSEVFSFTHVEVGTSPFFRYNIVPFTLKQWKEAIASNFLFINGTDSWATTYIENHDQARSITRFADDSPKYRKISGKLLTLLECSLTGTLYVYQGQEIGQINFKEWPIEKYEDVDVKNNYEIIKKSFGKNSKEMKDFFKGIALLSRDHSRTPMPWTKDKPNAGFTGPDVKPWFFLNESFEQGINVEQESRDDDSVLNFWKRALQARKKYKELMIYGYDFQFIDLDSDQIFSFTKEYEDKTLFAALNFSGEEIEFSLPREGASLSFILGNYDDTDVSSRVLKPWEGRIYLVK
Alpha-glucosidase (Saccharomyces cerevisiae S288c), sequence (P38158 whole entry, looked up): as the sequence (P07265 whole entry, looked up) above, with R273T, V305L counted along it
Alpha-glucosidase (Saccharomyces cerevisiae S288c), sequence (P53341 whole entry, looked up): as the sequence (P07265 whole entry, looked up) above, with R273T, F467L counted along it

Row | Molecule | IC50 (Alpha-glucosidase) | Vmax [1]
1 | COc1ccc(/C=N/Nc2nnc3n2N=C(c2ccccc2)CS3)cc1 | 85.86 µM | –
2 | Brc1ccccc1/C=N/Nc1nnc2n1N=C(c1ccccc1)CS2 | 32.12 µM | –
3 | Fc1ccccc1/C=N/Nc1nnc2n1N=C(c1ccccc1)CS2 | > 250 µM | –
4 | CN(C)c1ccc(/C=N/Nc2nnc3n2N=C(c2ccccc2)CS3)cc1 | 35.58 µM | –
5 | Clc1cccc(/C=N/Nc2nnc3n2N=C(c2ccccc2)CS3)c1 | 42.36 µM | –
6 | Fc1ccc(/C=N/Nc2nnc3n2N=C(c2ccccc2)CS3)cc1 | 50.24 µM | –
7 | Alpha-glucosidase (Saccharomyces cerevisiae S288c) (from UniProt P53341+P38158+P07265) | – | 0.07 µM/L.min
8 | Oc1ccc(/C=N/Nc2nnc3n2N=C(c2ccccc2)CS3)c(O)c1 | 32.96 µM | –
